# Reference: PMC11662004 (Communications Chemistry, 2024)
# Several values for one entry are separate records, joined by “and”; a condition that tells them apart may be missing. Equal entries are not always repeated. Where two headings read alike, the source gives them in different places.
# Target: T1, NgTet1 (Naegleria gruberi, UniProt D2W6T1)
# T1 construct: His6-tagged full-length Naegleria gruberi NgTet1 (321 a. a.) protein with a thrombin cleavage site; made in house; host or cells: E. coli BL21(DE3)
# T1 sequence (D2W6T1 1-321): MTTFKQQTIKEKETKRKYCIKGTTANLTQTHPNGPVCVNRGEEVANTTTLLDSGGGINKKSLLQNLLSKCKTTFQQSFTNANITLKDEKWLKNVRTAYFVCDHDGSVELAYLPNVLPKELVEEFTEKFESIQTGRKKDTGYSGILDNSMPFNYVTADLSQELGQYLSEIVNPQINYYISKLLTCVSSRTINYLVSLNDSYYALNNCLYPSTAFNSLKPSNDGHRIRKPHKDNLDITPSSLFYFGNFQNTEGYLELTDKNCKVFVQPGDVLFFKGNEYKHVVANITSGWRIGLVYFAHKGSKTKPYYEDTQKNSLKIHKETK
# Type: biochemical
# Conditions: for 2OG Concentration / Succinate Concentration: 20 μM 5HC DNA; for succinate: n = 1
# Method: Double-stranded 12 bp DNA oligomers were added at a final concentration of 20 µM. […]
# Double-stranded DNA oligomers were added at a final concentration of 20 µM. […]
# All ^1H NMR spectra were recorded at 25 °C using D2O as a reference for internal deuterium lock on a Bruker Avance III 700 MHz equipped with an inverse TCI cryoprobe in 3 or 5 mm diameter tubes with a total sample volume of 160 or 565 μL, respectively. The water signal was reduced using Perfect Echo excitation sculpting suppression. Chemical shifts are reported in ppm relative to D2O (δH = 4.70 ppm).
# Spectrometer settings were determined using a control sample containing all reaction components excluding enzyme. TET enzyme was added to an identical sample, and the resulting assay mixture was transferred to an NMR tube before deposition into the instrument. […] Spectrum recordings were carried out consecutively without delay. Data were processed using automated routines on MestReNova v14.2.0; signals of interest were integrated with absolute intensity scaling. ^1H NMR time courses reported in figures are representative results from two or three independent replicates.
substance,measurement,setting,value
"5HC DNA: non-methylated DNA of the same sequence, 5'-ACC ACC GGT GGT-3', non-substrate (DNA ACCACCGGTGGT; DNA, backbone not given here)",2OG Concentration,time 6.31667 min,88.5781 µM
same,Succinate Concentration,time 6.31667 min,11.4219 µM
same,2OG Concentration,time 9.38333 min,79.2717 µM
same,Succinate Concentration,time 9.38333 min,20.7283 µM
same,2OG Concentration,time 12.45 min,72.6874 µM
same,Succinate Concentration,time 12.45 min,27.3126 µM
same,2OG Concentration,time 15.5167 min,67.5286 µM
same,Succinate Concentration,time 15.5167 min,32.4714 µM
same,2OG Concentration,time 18.6 min,63.1853 µM
same,Succinate Concentration,time 18.6 min,36.8147 µM
same,V0 NgTet1,"20 µM DNA, 100 μM 2OG, 5 μM NgTet1",1.30 µM/min
same,2-OG turnover rate,"2-OG 50 uM, 20 µM DNA",1.2756 µM/min and 1.3302 µM/min
same,2-OG turnover rate,"2-OG 100 uM, 20 µM DNA",2.0544 µM/min and 2.2614 µM/min
same,2-OG turnover rate,"2-OG 200 uM, 20 µM DNA",3.7602 µM/min and 3.5166 µM/min
same,2-OG turnover rate,"2-OG 400 uM, 20 µM DNA",4.4538 µM/min and 4.2732 µM/min
same,2-OG turnover rate,"2-OG 700 uM, 20 µM DNA",4.9836 µM/min and 5.0838 µM/min
same,2-OG turnover rate,"2-OG 1000 uM, 20 µM DNA",5.3268 µM/min and 5.3442 µM/min
same,2-OG turnover rate,"2-OG 2000 uM, 20 µM DNA",5.8116 µM/min and 5.7954 µM/min
same,2-OG turnover rate,"2-OG 4000 uM, 20 µM DNA",6.75 µM/min and 6.036 µM/min
same,succinate,"time (min) 5HC DNA 5.9, AT DNA 5.81667, 5mC DNA 5.78333",7.407 µM
same,succinate,"time (min) 5HC DNA 8.98333, AT DNA 8.9, 5mC DNA 8.86667",12.5672 µM
same,succinate,"time (min) 5HC DNA 12.0667, AT DNA 11.9833, 5mC DNA 11.95",16.4606 µM
same,succinate,"time (min) 5HC DNA 15.1333, AT DNA 15.0667, 5mC DNA 15.0333",19.1176 µM
same,succinate,"time (min) 5HC DNA 18.2167, AT DNA 18.1333, 5mC DNA 18.1167",21.6247 µM
same,succinate,"time (min) 5HC DNA 21.3667, AT DNA 21.2333, 5mC DNA 21.2",24.6175 µM
same,succinate,"time (min) 5HC DNA 24.45, AT DNA 24.3167, 5mC DNA 24.2833",26.0885 µM
same,succinate,"time (min) 5HC DNA 27.5333, AT DNA 27.3833, 5mC DNA 27.3667",28.2137 µM
same,succinate,"time (min) 5HC DNA 30.6, AT DNA 30.4667, 5mC DNA 30.45",29.4575 µM
same,succinate,"time (min) 5HC DNA 33.6833, AT DNA 33.55, 5mC DNA 33.5333",31.2095 µM
same,succinate,"time (min) 5HC DNA 36.7667, AT DNA 36.6333, 5mC DNA 36.6167",32.5108 µM
same,succinate,"time (min) 5HC DNA 39.85, AT DNA 39.7167, 5mC DNA 39.7",33.8071 µM
same,succinate,"time (min) 5HC DNA 42.9333, AT DNA 42.8, 5mC DNA 42.7833",34.7457 µM
same,succinate,"time (min) 5HC DNA 46.0167, AT DNA 45.8833, 5mC DNA 45.8667",35.7895 µM
